PubChem BioAssay (NCI)
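Growth conditions: 96-well plates. Treatment: test compound, 48 hours, 5 concentrations. Analysis: linear interpolation between bracketing concentrations; unreached endpoints set to highest concentration. Definition used: TGI = concentration required for complete inhibition of growth.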

Experiments:
Experiment in all cases: NCI-60 cell line screen, 48 h
ACHN renal = system: ACHN renal
OVCAR-5 ovarian = system: OVCAR-5 ovarian
LXFL 529 NSCLC = system: LXFL 529 NSCLC
SF-539 CNS = system: SF-539 CNS
KM20L2 colon = system: KM20L2 colon
NCI-H522 lung = system: NCI-H522 lung
SF-268 CNS = system: SF-268 CNS
SNB-19 CNS = system: SNB-19 CNS
CCRF-CEM leukemia = system: CCRF-CEM leukemia
786-0 renal = system: 786-0 renal
SK-MEL-2 melanoma = system: SK-MEL-2 melanoma
HT29 colon = system: HT29 colon
A498 renal = system: A498 renal
HL-60(TB) leukemia = system: HL-60(TB) leukemia
NCI-H23 lung = system: NCI-H23 lung
NCI-H460 lung = system: NCI-H460 lung
SF-295 CNS = system: SF-295 CNS
UACC-62 melanoma = system: UACC-62 melanoma
SNB-75 CNS = system: SNB-75 CNS
SK-OV-3 ovarian = system: SK-OV-3 ovarian
UACC-257 melanoma = system: UACC-257 melanoma
UO-31 renal = system: UO-31 renal
HOP-62 NSCLC = system: HOP-62 NSCLC
MALME-3M melanoma = system: MALME-3M melanoma
KM12 colon = system: KM12 colon
SK-MEL-28 melanoma = system: SK-MEL-28 melanoma
COLO 205 colon = system: COLO 205 colon
HOP-92 NSCLC = system: HOP-92 NSCLC
OVCAR-4 ovarian = system: OVCAR-4 ovarian
RPMI-8226 leukemia = system: RPMI-8226 leukemia
IGROV1 ovarian = system: IGROV1 ovarian
U251 CNS = system: U251 CNS
OVCAR-3 ovarian = system: OVCAR-3 ovarian
SNB-78 CNS = system: SNB-78 CNS
M14 melanoma = system: M14 melanoma
K-562 leukemia = system: K-562 leukemia
RXF 393 renal = system: RXF 393 renal
M19-MEL melanoma = system: M19-MEL melanoma
DLD-1 colon = system: DLD-1 colon
OVCAR-8 ovarian = system: OVCAR-8 ovarian
MOLT-4 leukemia = system: MOLT-4 leukemia
TK-10 renal = system: TK-10 renal
A549 NSCLC = system: A549 NSCLC
SW-620 colon = system: SW-620 colon
SR leukemia = system: SR leukemia
NCI-H226 lung = system: NCI-H226 lung
LOX IMVI melanoma = system: LOX IMVI melanoma
HCT-116 colon = system: HCT-116 colon

Compound: CCN(CC)CCN1C(=O)CC2[C@@H]3CCc4cc(OC)ccc4C3CC[C@]2(C)C1=O (stereo partly specified)
- TGI (ACHN renal): > 100 µM
- TGI (OVCAR-5 ovarian): > 100 µM
- TGI (LXFL 529 NSCLC): 30.9 µM
- TGI (SF-539 CNS): 19.5 µM
- TGI (KM20L2 colon): 46 µM
- TGI (NCI-H522 lung): 53.7 µM
- TGI (SF-268 CNS): > 100 µM
- TGI (SNB-19 CNS): > 100 µM
- TGI (CCRF-CEM leukemia): 39.2 µM
- TGI (786-0 renal): 31.1 µM
- TGI (SK-MEL-2 melanoma): 37.4 µM
- TGI (HT29 colon): 41.4 µM
- TGI (A498 renal): > 100 µM
- TGI (HL-60(TB) leukemia): 36.7 µM
- TGI (NCI-H23 lung): > 100 µM
- TGI (NCI-H460 lung): > 100 µM
- TGI (SF-295 CNS): 37.6 µM
- TGI (UACC-62 melanoma): 36 µM
- TGI (SNB-75 CNS): > 100 µM
- TGI (SK-OV-3 ovarian): > 100 µM
- TGI (UACC-257 melanoma): 30.2 µM
- TGI (UO-31 renal): 64.6 µM
- TGI (HOP-62 NSCLC): 54.2 µM
- TGI (MALME-3M melanoma): 33.4 µM
- TGI (KM12 colon): > 100 µM
- TGI (SK-MEL-28 melanoma): 33.1 µM
- TGI (COLO 205 colon): 39.1 µM
- TGI (HOP-92 NSCLC): > 100 µM
- TGI (OVCAR-4 ovarian): > 100 µM
- TGI (RPMI-8226 leukemia): 66 µM
- TGI (IGROV1 ovarian): > 100 µM
- TGI (U251 CNS): > 100 µM
- TGI (OVCAR-3 ovarian): > 100 µM
- TGI (SNB-78 CNS): > 100 µM
- TGI (M14 melanoma): 33.1 µM
- TGI (K-562 leukemia): 36.1 µM
- TGI (RXF 393 renal): 92.3 µM
- TGI (M19-MEL melanoma): 35.8 µM

Compound: S=c1[nH]nc(-c2ccccc2)n1/N=C\c1ccc(-c2ccc(Cl)cc2)o1
- TGI (ACHN renal): > 100 µM
- TGI (OVCAR-5 ovarian): > 100 µM
- TGI (LXFL 529 NSCLC): > 100 µM
- TGI (DLD-1 colon): > 100 µM
- TGI (SF-539 CNS): > 100 µM
- TGI (OVCAR-8 ovarian): > 100 µM
- TGI (KM20L2 colon): > 100 µM
- TGI (NCI-H522 lung): > 100 µM
- TGI (SF-268 CNS): > 100 µM
- TGI (SNB-19 CNS): > 100 µM
- TGI (786-0 renal): > 100 µM
- TGI (MOLT-4 leukemia): > 100 µM
- TGI (HT29 colon): > 100 µM
- TGI (HL-60(TB) leukemia): > 100 µM
- TGI (TK-10 renal): > 100 µM
- TGI (A549 NSCLC): > 100 µM
- TGI (NCI-H23 lung): > 100 µM
- TGI (NCI-H460 lung): > 100 µM
- TGI (SF-295 CNS): > 100 µM
- TGI (UACC-62 melanoma): > 100 µM
- TGI (SNB-75 CNS): > 100 µM
- TGI (SW-620 colon): > 100 µM
- TGI (SK-OV-3 ovarian): > 100 µM
- TGI (UACC-257 melanoma): > 100 µM
- TGI (UO-31 renal): > 100 µM
- TGI (SR leukemia): > 100 µM
- TGI (HOP-62 NSCLC): > 100 µM
- TGI (KM12 colon): > 100 µM
- TGI (SK-MEL-28 melanoma): > 100 µM
- TGI (COLO 205 colon): > 100 µM
- TGI (HOP-92 NSCLC): > 100 µM
- TGI (OVCAR-4 ovarian): > 100 µM
- TGI (RPMI-8226 leukemia): > 100 µM
- TGI (IGROV1 ovarian): > 100 µM
- TGI (U251 CNS): > 100 µM
- TGI (OVCAR-3 ovarian): > 100 µM
- TGI (SNB-78 CNS): > 100 µM
- TGI (NCI-H226 lung): > 100 µM
- TGI (M14 melanoma): > 100 µM
- TGI (K-562 leukemia): > 100 µM
- TGI (LOX IMVI melanoma): > 100 µM
- TGI (M19-MEL melanoma): > 100 µM
- TGI (HCT-116 colon): > 100 µM
